Experimental data: ChEMBL document CHEMBL1201862, “PubChem BioAssay data set” (2004)
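A five-concentration, 48-hour dose response in 96-well plates underlies each endpoint, interpolated linearly between surrounding concentrations. Abbreviation: GI50, concentration required for 50% inhibition of growth.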 Active and inactive are the calls of the source. No stated cut-off is given here; in the data, active = GI50 up to about 1.1 µM and inactive = higher.

What was measured:
Test in all cases: NCI anticancer screen, dose series, 48 h
[1] = tested on: 786-0
[2] = tested on: A498
[3] = tested on: A549
[4] = tested on: ACHN
[5] = tested on: BT-549
[6] = tested on: CAKI-1
[7] = tested on: CCRF-CEM
[8] = tested on: COLO 205
[9] = tested on: DU-145
[10] = tested on: EKVX
[11] = tested on: HCT-116
[12] = tested on: HCT-15
[13] = tested on: HL-60
[14] = tested on: HOP-62
[15] = tested on: HOP-92
[16] = tested on: HT-29
[17] = tested on: Hs-578T
[18] = tested on: IGROV-1
[19] = tested on: K562
[20] = tested on: KM12
[21] = tested on: LOX IMVI
[22] = tested on: M14
[23] = tested on: MCF7
[24] = tested on: MDA-MB-231
[25] = tested on: MDA-MB-435
[26] = tested on: MDA-N
[27] = tested on: MOLT-4
[28] = tested on: Malme-3M
[29] = tested on: NCI-H226
[30] = tested on: NCI-H23
[31] = tested on: NCI-H460
[32] = tested on: NCI-H522
[33] = tested on: NCI/ADR-RES
[34] = tested on: OVCAR-3
[35] = tested on: OVCAR-4
[36] = tested on: OVCAR-5
[37] = tested on: OVCAR-8
[38] = tested on: PC-3
[39] = tested on: RPMI-8226
[40] = tested on: RXF 393
[41] = tested on: SF-268
[42] = tested on: SF-295
[43] = tested on: SF-539
[44] = tested on: SK-MEL-28
[45] = tested on: SK-MEL-2
[46] = tested on: SK-MEL-5
[47] = tested on: SK-OV-3
[48] = tested on: SN12C
[49] = tested on: SNB-19
[50] = tested on: SNB-75
[51] = tested on: SR
[52] = tested on: SW-620
[53] = tested on: T47D
[54] = tested on: TK-10
[55] = tested on: U-251
[56] = tested on: UACC-257
[57] = tested on: UACC-62
[58] = tested on: UO-31
[59] = tested on: HCC 2998

Measured: GI50

O=C(O)c1nnsc1-c1ccc(-c2snnc2C(=O)O)cc1
inactive: [1] 43.2 µM | [2] > 100 µM | [3] > 100 µM | [4] > 100 µM | [5] > 100 µM | [6] 58.7 µM | [7] 2.94 µM | [8] > 100 µM | [9] > 100 µM | [10] 91.6 µM | [11] > 100 µM | [13] 37.7 µM | [14] > 100 µM | [15] 68.4 µM | [16] > 100 µM | [17] > 100 µM | [18] > 100 µM | [19] 28.5 µM | [20] > 100 µM | [21] 31.8 µM | [22] > 100 µM | [23] 27.7 µM | [24] > 100 µM | [25] 48.2 µM | [26] > 100 µM | [27] 17.4 µM | [28] 56.8 µM | [29] > 100 µM | [30] > 100 µM | [31] 32.1 µM | [32] 56.6 µM | [33] > 100 µM | [34] 91.2 µM | [35] 29.6 µM | [36] > 100 µM | [37] > 100 µM | [38] 85.9 µM | [39] 29.4 µM | [40] > 100 µM | [41] > 100 µM | [42] > 100 µM | [43] 33.7 µM | [44] > 100 µM | [45] > 100 µM | [46] > 100 µM | [47] > 100 µM | [48] > 100 µM | [49] > 100 µM | [50] > 100 µM | [51] 10.5 µM | [52] 39.5 µM | [53] > 100 µM | [54] > 100 µM | [55] > 100 µM | [56] > 100 µM | [57] > 100 µM | [58] > 100 µM
42 µM: [12]

CC(C)(C)CC(N)=O
inactive: [1] > 100 µM | [2] > 100 µM | [3] > 100 µM | [4] > 100 µM | [5] > 100 µM | [6] > 100 µM | [7] > 100 µM | [8] > 100 µM | [9] > 100 µM | [10] > 100 µM | [59] > 100 µM | [11] > 100 µM | [13] > 100 µM | [14] > 100 µM | [15] > 100 µM | [16] > 100 µM | [17] > 100 µM | [18] > 100 µM | [19] > 100 µM | [20] > 100 µM | [21] > 100 µM | [22] > 100 µM | [23] > 100 µM | [24] > 100 µM | [25] > 100 µM | [26] > 100 µM | [27] > 10 µM | [29] > 100 µM | [30] > 100 µM | [31] > 100 µM | [32] > 100 µM | [33] > 100 µM | [34] > 100 µM | [35] > 100 µM | [36] > 100 µM | [37] > 100 µM | [38] > 100 µM | [39] > 10 µM | [41] > 100 µM | [42] > 100 µM | [43] > 100 µM | [44] > 100 µM | [45] > 100 µM | [46] > 100 µM | [47] > 100 µM | [48] > 100 µM | [49] > 100 µM | [50] > 100 µM | [51] > 100 µM | [52] > 100 µM | [53] > 100 µM | [54] > 100 µM | [55] > 100 µM | [56] > 100 µM | [57] > 100 µM | [58] > 100 µM
> 100 µM: [12]

Cc1ccc(S(=O)(=O)OC2C3OC(C)(C)OC3OC2C(c2cc(O)c3c(c2O)C(=O)c2ccccc2C3=O)c2cc(O)c3c(c2O)C(=O)c2ccccc2C3=O)cc1 (centres undefined)
inactive: [1] > 10 µM | [2] > 10 µM | [3] > 10 µM | [4] > 10 µM | [5] > 10 µM | [6] > 10 µM | [7] > 10 µM | [8] > 10 µM | [9] > 10 µM | [10] > 10 µM | [59] > 10 µM | [11] > 10 µM | [13] > 10 µM | [14] > 10 µM | [15] > 10 µM | [16] > 10 µM | [17] > 10 µM | [18] > 10 µM | [19] > 10 µM | [20] > 10 µM | [21] > 10 µM | [22] > 10 µM | [23] > 10 µM | [24] > 10 µM | [25] > 10 µM | [26] > 10 µM | [27] > 10 µM | [28] > 10 µM | [29] > 10 µM | [30] > 10 µM | [31] > 10 µM | [32] > 10 µM | [33] > 10 µM | [34] > 10 µM | [35] > 10 µM | [36] > 10 µM | [37] > 10 µM | [38] > 10 µM | [39] > 10 µM | [41] > 10 µM | [42] > 10 µM | [43] > 10 µM | [44] > 10 µM | [45] > 10 µM | [46] > 10 µM | [47] > 10 µM | [48] > 10 µM | [49] > 10 µM | [50] > 10 µM | [51] > 10 µM | [52] > 10 µM | [53] > 10 µM | [54] > 10 µM | [55] > 10 µM | [56] > 10 µM | [57] > 10 µM | [58] > 10 µM
> 10 µM: [12]

OC12C3C4CC5C(C4[C@@H]1Br)C2[C@@](O)(c1c(F)c(F)c(F)c(F)c1F)C53 (some centres undefined)
inactive: [1] 41.7 µM | [2] 33.2 µM | [3] 33.7 µM | [4] 51.1 µM | [5] 39.4 µM | [6] 21.1 µM | [7] 21.7 µM | [8] 39.4 µM | [9] 41.8 µM | [10] 27.1 µM | [59] 36.5 µM | [11] 30.8 µM | [13] 38.2 µM | [14] 35.1 µM | [15] 24 µM | [16] 27.5 µM | [17] 22.2 µM | [18] 35.6 µM | [19] 21.4 µM | [20] 15.7 µM | [21] 32.1 µM | [22] 37 µM | [23] 20.4 µM | [24] > 100 µM | [25] 37.6 µM | [26] 34.9 µM | [27] 26.5 µM | [30] 31.7 µM | [31] 33.7 µM | [32] 29.6 µM | [33] 27.2 µM | [34] 23.3 µM | [35] 28.2 µM | [36] 68.2 µM | [37] 32 µM | [38] 23.3 µM | [40] 24.3 µM | [41] 38.7 µM | [42] 25.9 µM | [43] 56.4 µM | [44] 39.8 µM | [45] 24.5 µM | [46] 26.2 µM | [48] > 100 µM | [49] 37.2 µM | [51] 21.3 µM | [52] 43.3 µM | [53] 41.4 µM | [54] 47.8 µM | [55] 38 µM | [56] 24.8 µM | [57] 25.6 µM | [58] 29.8 µM
39.8 µM: [12]

S=c1c2cc(I)ccc2nc(S)n1Cc1ccccc1
inactive: [1] 5.96 µM | [2] 3.33 µM | [3] 3.68 µM | [4] 3.06 µM | [5] 4.42 µM | [6] 3.78 µM | [7] 1.84 µM | [8] 10.7 µM | [9] 2.71 µM | [10] 3.71 µM | [11] 3.38 µM | [13] 2.33 µM | [14] 2.87 µM | [15] 2.69 µM | [16] 18.4 µM | [17] 7.16 µM | [18] 4.05 µM | [19] 3.54 µM | [20] 3.42 µM | [21] 3.4 µM | [22] 3.9 µM | [23] 5.42 µM | [24] 6.37 µM | [25] 4.1 µM | [26] 3.83 µM | [27] 3.18 µM | [28] 4.01 µM | [29] 5.46 µM | [30] 2.91 µM | [31] 3.28 µM | [32] 4.38 µM | [33] 3.37 µM | [34] 2.9 µM | [35] 3.62 µM | [36] 17 µM | [37] 5.57 µM | [38] 3.32 µM | [39] 2.95 µM | [40] 2.17 µM | [41] 6.43 µM | [42] 2.99 µM | [43] 10.3 µM | [44] 3.79 µM | [45] 3.14 µM | [46] 3.17 µM | [47] 4.1 µM | [48] 3.16 µM | [49] 4.32 µM | [50] 2.69 µM | [51] 3.64 µM | [52] 3.72 µM | [53] 1.5 µM | [54] 4.55 µM | [55] 3.46 µM | [56] 2.44 µM | [58] 3.37 µM
3.78 µM: [12]
